US8114904B2, “Luminescence quenchers and fluorogenic probes for detection of reactive species” (Versitech Limited & Morningside Ventures Limited, priority 2008, dated 2012)

Tests used:
[1] = test system: Murine J744.1 macrophages; experiment: Cell assay: detection of peroxynitrite in living cells by fluorescent microscopy; type: cell-based; settings: for fluorescence observed in the absence of stimulants: J744.1 macrophages incubated with 20 μM probe for 1 hr
Protocol: (§1) Murine J744.1 macrophages (ATCC, USA) were used to investigate the potential of Compound 22 (acetate form of Compound 10) for the detection of peroxynitrite in living cells. J744.1 macrophages were cultured in Dulbecco's Modified Eagle's Medium (DMEM) (Gibco) containing 10% heat-inactivated fetal bovine serum (Gibco) supplemented with 100 U/ml of penicillin and 100 μg/ml streptomycin at 37° C., 5% CO2. They were subcultured by scraping and seeded on six-well plates according to manufacture's instruction. The growth medium was changed every two to three days. Cells were grown to confluence prior to experiment. Murine J744.1 macrophages were incubated with Compound 22 (20 μM) for 1 hr and then washed three times with PBS buffer.
as §1, with “12 and 12a” for “22 (acetate form of Compound 10)”, “12 or 12a” for “22”, “buffer. […] The fluorescence was induced after treatment with LPS (lipopolysaccharide, 1 μg/ml) for 4 hrs (FIG. 9D and FIG. 10B).” for “buffer.”

[2] = Emission spectra of the probe itself; type: physicochemical; settings: 10 μM, 0.1 M phosphate buffer pH 7.4, excitation 520 nm, Hitachi F7000, 900 V
Protocol: (§2) Compound 10 obtained in Example 4 was dissolved in DMF to a concentration of 10 mM, and then the solution was diluted to 10 μM by 0.1 M phosphate buffer (pH 7.4). The fluorescence spectrum of the 10 μM solution of Compound 10 was measured using a Hitachi F2500 fluorescence spectrometer and the photomultiplier voltage was 700 V. The slit width was 2.5 nm for both excitation and emission. The measurement was carried out at an excitation wavelength of 520 nm. The results shown in FIG. 1 indicate that Compound 10 itself is non-fluorescent.
(§3) Compound 12 obtained in Example 5 was dissolved in DMF to a concentration of 1 mM, and then the solution was diluted to 1 μM by 0.1 M phosphate buffer (pH 7.4). The fluorescence spectrum of the 1 μM solution of Compound 12 was measured using a Hitachi F2500 fluorescence spectrometer and the photomultiplier voltage was 700 V. The slit width was 2.5 nm for both excitation and emission. The measurement was carried out at an excitation wavelength of 515 nm. The results shown in FIG. 4 indicate that Compound 12 itself is non-fluorescent.
as §3, with “Compound 14” for “Compound 12”, “Example 6” for “Example 5”, “FIG. 6” for “FIG. 4”
as §2, with “Compound 30” for “Compound 10”, “Example 7” for “Example 4”, “Hitachi F7000” for “Hitachi F2500”, “was 900” for “was 700”, “nm.” for “nm. The results shown in FIG. 1 indicate that Compound 10 itself is non-fluorescent.”

[3] = UV-visible absorption spectrum; type: physicochemical; settings: 10 μM solution, pH 7.4 0.1 M phosphate buffer, 0.1% DMF
Protocol: Compound 10 obtained in Example 4 was dissolved in pH 7.4 0.1 M phosphate buffer containing 0.1% DMF as cosolvent to form a 10 μM solution.
Compound 12 obtained in Example 5 was dissolved in pH 7.4 0.1 M phosphate buffer containing 0.1% DMF as cosolvent to form a 1 μM solution.
Compound 14 obtained in Example 6 was dissolved in pH 7.4 0.1 M phosphate buffer containing 0.1% DMF as cosolvent to form a 1 μM solution.
Compound 30 obtained in Example 7 was dissolved in pH 7.4 0.1 M phosphate buffer containing 0.1% DMF as cosolvent to form a 10 μM solution. The absorption spectrum of the 10 μM solution of Compound 30 was measured.

[4] = Detection of peroxynitrite: fluorescence spectra after addition of peroxynitrite; settings: 10 μM probe, 0.1 M potassium phosphate buffer pH 7.4, measured after 5 minutes, excitation 520 nm
Protocol: Compound 10 obtained in Example 4 was dissolved in DMF to a concentration of 10 mM, and then the solution was diluted to 10μM by 0.1 M potassium phosphate buffer (pH 7.4). Peroxynitrite solution in 0.1 M NaOH was prepared by the method of Keith and Powell (Keith, W. G. & Powell, R. E.; Kinetics of decomposition of peroxynitrous acid; J. Chem. Soc. A, 1969, 1, 90), and its concentration in the stock solutions used was estimated by using an extinction coefficient of 1670 cm^−1 (mol/L)^−1 at 302 nm (Hughes and Nicklin; The chemistry of pernitrites. Part I. Kinetics of decomposition of pernitrious acid; J. Chem. Soc. A, 1968, 2, 450-452). Peroxynitrite stock solution was added into the solution of Compound 10 to provide various final concentrations, like 0, 2, 6, 10, 20, 30, 50 100, and 200 μM. Fluorescence spectra of the solutions were measured after 5 minutes under the same conditions as mentioned above.
Compound 12 obtained in Example 5 was dissolved in DMF to a concentration of 1 mM, and then the solution was diluted to 1 μM by 0.1 M potassium phosphate buffer (pH 7.4). Peroxynitrite solution in 0.1 M NaOH was prepared by the method of Keith and Powell (Keith, W. G. & Powell, R. E.; Kinetics of decomposition of peroxynitrous acid; J. Chem. Soc. A, 1969, 1, 90), and its concentration in the stock solutions used was estimated by using an extinction coefficient of 1670 cm^−1 (mol/L)^−1 at 302 nm (Hughes and Nicklin; The chemistry of pernitrites. Part I. Kinetics of decomposition of pernitrious acid; J. Chem. Soc. A, 1968, 2, 450-452). Peroxynitrite stock solution was added into the solution of Compound 12 to provide various final concentrations, like 0, 1, 2, 3, 4, 5, 6, and 7 μM. Fluorescence spectra of the solutions were measured after 5 minutes under the same conditions as mentioned above.
Compound 30 obtained in Example 7 was dissolved in DMF to a concentration of 10 mM, and then the solution was diluted to 10 μM by 0.1 M potassium phosphate buffer (pH 7.4). Peroxynitrite solution in 0.1 M NaOH was prepared by the method of Keith and Powell (Keith, W. G. & Powell, R. E.; Kinetics of decomposition of peroxynitrous acid; J. Chem. Soc. A, 1969, 1, 90), and its concentration in the stock solutions used was estimated by using an extinction coefficient of 1670 cm^−1 (mol/L)^−1 at 302 nm (Hughes and Nicklin; The chemistry of pernitrites. Part I. Kinetics of decomposition of pernitrious acid; J. Chem. Soc. A, 1968, 2, 450-452). Peroxynitrite stock solution was added into the solution of Compound 30 to provide various final concentrations. Fluorescence spectra of the solutions were measured after 5 minutes under the same conditions as mentioned above.

Row | fluorescence of the probe itself [2] | absorption maximum [3] | Structure (SMILES) | fluorescence after treatment with LPS ([1]; 20 μM probe 1 hr, LPS 1 μg/ml for 4 hrs) | fluorescence observed in the absence of stimulants [1] | fluorescence after treatment with LPS and IFN-γ ([1]; 20 μM probe 1 hr, LPS 1 μg/ml and IFN-γ 50 ng/ml for 4 hrs) | fluorescence after additional stimulation by PMA ([1]; 20 μM probe 1 hr, LPS and IFN-γ 4 hrs, then PMA 10 nM for half an hour) | suitability for detection of peroxynitrite in stimulated macrophages ([1]; stimulated Murine J744.1 macrophages) | fluorescence intensity after the addition of peroxynitrite [4]
1 |  |  | CC(=O)Oc1ccc(N(C)c2ccc3c(c2)Oc2cc(OC(C)=O)ccc2C32OC(=O)c3ccccc32)cc1 (stereo not drawn) [Compound 12a] | induced | very weak fluorescence |  |  |  | 
2 |  |  | CC(=O)Oc1cc2c(cc1Cl)C1(OC(=O)c3ccccc31)c1cc(Cl)c(N(C)c3ccc(CCC(=O)C(F)(F)F)cc3)cc1O2 (stereo not drawn) [Compound 22] |  | very weak fluorescence | induced | strong fluorescence | suitable for the detection of peroxynitrite | 
3 | may be non-fluorescent | about 540 nm | CN(c1ccc(O)cc1)c1ccc2c(ccc3c(-c4ccccc4C(=O)O)c4cc(Cl)c(=O)cc-4oc32)c1 [Compound 30] |  |  |  |  |  | increases significantly
